Test results: patent US7754880B2, “Uracils having a herbicidal activity” (Isagro Ricerca S.r.l., priority 2002, dated 2010)

SMILES | melting point [°C]
CC(C)n1nnc(-c2cc(-n3c(=O)cc(C(F)(F)F)n(C)c3=O)ccc2Cl)n1 [Compound No 134, 3-[4-chloro-3-(2-isopropyl-2H-tetrazol-5-yl)phenyl]-1-methyl-6-(trifluoromethyl)-2,4(1H,3H)-pyrimidinedione] | 147
COC(=O)Cn1nnnc1-c1cc(-n2c(=O)cc(C(F)(F)F)n(C)c2=O)ccc1Cl [Compound No 18, methyl (5-{2-chloro-5-[1,2,3,6-tetrahydro-3-methyl-2,6-dioxo-4-(trifluoromethyl)pyrimidin-1-yl]phenyl}-1H-tetrazol-1-yl)acetate] | 130
CCOC(=O)/C=C(\COc1cc(-n2c(=O)cc(C(F)(F)F)n(C)c2=O)c(Cl)cc1Cl)OC [Compound No 99, ethyl (2E)-4-{2,4-dichloro-5-[1,2,3,6-tetrahydro-3-methyl-2,6-dioxo-4-(trifluoromethyl)pyrimidin-1-yl]phenoxy}-3-methoxybut-2-enoate] | 128
COCn1nnc(-c2cc(-n3c(=O)cc(C(F)(F)F)n(C)c3=O)ccc2Cl)n1 [Compound No 101, 3-{4-chloro-3-[2-(methoxymethyl)-2H-tetrazol-5-yl]phenyl}-1-methyl-6-(trifluoromethyl)-2,4(1H,3H)-pyrimidinedione] | 80
Cn1c(C(F)(F)F)cc(=O)n(-c2ccc(Cl)c(-c3nnn(C(C)(C)C)n3)c2)c1=O [Compound No 118, 3-[3-(2-tert-butyl-2H-tetrazol-5-yl)-4-chlorophenyl]-1-methyl-6-(trifluoromethyl)-2,4(1H,3H)-pyrimidinedione] | 154
Cn1c(C(F)(F)F)cc(=O)n(-c2cc(Oc3nnc(C(F)(F)F)s3)c(Cl)cc2Cl)c1=O [Compound No 84, 3-(2,4-dichloro-5-{[5-(trifluoromethyl)-1,3,4-thiadiazol-2-yl]oxy}phenyl)-1-methyl-6-(trifluoromethyl)-2,4(1H,3H)-pyrimidinedione] | 90
CCOCn1nnnc1-c1cc(-n2c(=O)cc(C(F)(F)F)n(C)c2=O)ccc1Cl [Compound No 104, 3-{4-chloro-3-[1-(ethoxymethyl)-1H-tetrazol-5-yl]phenyl}-1-methyl-6-(trifluoromethyl)-2,4(1H,3H)-pyrimidinedione] | 157
CC(C)Cc1csc(-c2cc(-n3c(=O)cc(C(F)(F)F)n(C)c3=O)c(Cl)cc2Cl)n1 [Compound No 129, 3-[2,4-dichloro-5-(4-isobutyl-1,3-thiazol-2-yl)phenyl]-1-methyl-6-(trifluoromethyl) 2,4(1H,3H)-pyrimidinedione] | 167
CCn1nnnc1-c1cc(-n2c(=O)cc(C(F)(F)F)n(C)c2=O)ccc1Cl [Compound No 16, 3-[4-chloro-3-(1-ethyl-1H-tetrazol-5-yl)phenyl]-1-methyl-6-(trifluoromethyl)-2,4(1H,3H)-pyrimidinedione] | 202
Cn1c(C(F)(F)F)cc(=O)n(-c2cc(-c3nc4ccccc4o3)c(Cl)cc2F)c1=O [Compound No 122, 3-[5-(1,3-benzoxazol-2-yl)-4-chloro-2-fluorophenyl]-1-methyl-6-(trifluoromethyl)-2,4(1H,3H)-pyrimidinedione] | 178
Cn1c(C(F)(F)F)cc(=O)n(-c2ccc(Cl)c(-c3nc4ccccc4o3)c2)c1=O [Compound No 114, 3-[3-(1,3-benzoxazol-2-yl)-4-chlorophenyl]-1-methyl-6-(trifluoromethyl)-2,4(1H,3H)-pyrimidinedione] | 183
Cn1c(C(F)(F)F)cc(=O)n(-c2cc(-c3nc4ccccc4s3)c(Cl)cc2Cl)c1=O [Compound No 123, 3-[5-(1,3-benzothiazol-2-yl)-2,4-dichlorophenyl]-1-methyl-6-(trifluoromethyl)-2,4(1H,3H)-pyrimidinedione] | 195
CCOCn1nnc(-c2cc(-n3c(=O)cc(C(F)(F)F)n(C)c3=O)ccc2Cl)n1 [Compound No 103, 3-{4-chloro-3-[2-(ethoxymethyl)-2H-tetrazol-5-yl]phenyl}-1-methyl-6-(trifluoromethyl)-2,4(1H,3H)-pyrimidinedione] | 140
Cn1c(C(F)(F)F)cc(=O)n(-c2ccc(Cl)c(-c3nnn(CC(N)=O)n3)c2)c1=O [Compound No 126, 2-(5-{2-chloro-5-[1,2,3,6-tetrahydro-3-methyl-2,6-dioxo-4-(trifluoromethyl)pyrimidin-1-yl]phenyl}-2H-tetrazol-2-yl)acetamide] | 200
Cn1c(C(F)(F)F)cc(=O)n(-c2cc(-c3nc4ccccc4s3)c(Cl)cc2F)c1=O [Compound No 119, 3-[5-(1,3-benzothiazol-2-yl)-4-chloro-2-fluorophenyl]-1-methyl-6-(trifluoromethyl)-2,4(1H,3H)-pyrimidinedione] | 211
Cc1ccc2nc(-c3cc(-n4c(=O)cc(C(F)(F)F)n(C)c4=O)c(Cl)cc3Cl)oc2c1 [Compound No 124, 3-[2,4-dichloro-5-(6-methyl-1,3-benzoxazol-2-yl)phenyl]-1-methyl-6-(trifluoromethyl) 2,4(1H,3H)-pyrimidinedione] | 200
Cn1c(C(F)(F)F)cc(=O)n(-c2ccc(Cl)c(-c3nc4ccccc4s3)c2)c1=O [Compound No 113, 3-[3-(1,3-benzothiazol-2-yl)-4-chlorophenyl]-1-methyl-6-(trifluoromethyl)-2,4(1H,3H)-pyrimidinedione] | 189
CCOC(=O)c1sc(-c2cc(-n3c(=O)cc(C(F)(F)F)n(C)c3=O)ccc2Cl)nc1C [Compound No 131, ethyl 2-{2-chloro-5-[1,2,3,6-tetrahydro-3-methyl-2,6-dioxo-4-(trifluoromethyl)pyrimidin-1-yl]phenyl}-4-methyl-1,3-thiazole-5-carboxylate] | 200
CN(C)C(=O)Cn1nnc(-c2cc(-n3c(=O)cc(C(F)(F)F)n(C)c3=O)ccc2Cl)n1 [Compound No 125, 2-(5-{2-chloro-5-[1,2,3,6-tetrahydro-3-methyl-2,6-dioxo-4-(trifluoromethyl)pyrimidin-1-yl]phenyl}-2H-tetrazol-2-yl)-N,N-dimethylacetamide] | 208

Next, values leading:

melting point [°C] | SMILES
128 | CC(C)c1cc(COc2cc(-n3c(=O)cc(C(F)(F)F)n(C)c3=O)c(F)cc2Cl)on1 [Compound No 133, 3-{4-chloro-2-fluoro-5-[(3-isopropylisoxazol-5-yl)methoxy]phenyl}-1-methyl-6-(trifluoromethyl)-2,4(1H,3H)-pyrimidinedione]
172 | COC(=O)Cn1nnc(-c2cc(-n3c(=O)cc(C(F)(F)F)n(C)c3=O)ccc2Cl)n1 [Compound No 17, methyl (5-{2-chloro-5-[1,2,3,6-tetrahydro-3-methyl-2,6-dioxo-4-(trifluoromethyl)pyrimidin-1-yl]phenyl}-2H-tetrazol-2-yl)acetate]
243 | COC(=O)Cn1nnnc1COc1cc(-n2c(=O)cc(C(F)(F)F)n(C)c2=O)c(F)cc1Cl [Compound No 10, methyl [5-({2-chloro-4-fluoro-5-[1,2,3,6-tetrahydro-3-methyl-2,6-dioxo-4-(trifluoromethyl)pyrimidin-1-yl]phenoxy}methyl)-1H-tetrazol-1-yl]acetate]
167 | Cc1nc(COc2cc(-n3c(=O)cc(C(F)(F)F)n(C)c3=O)c(Cl)cc2Cl)no1 [Compound No 112, 3-{2,4-dichloro-5-[(5-methyl-1,2,4-oxadiazol-3-yl)methoxy]phenyl}-1-methyl-6-(trifluoromethyl)-2,4(1H,3H)-pyrimidinedione]
126 | CCn1nnc(COc2cc(-n3c(=O)cc(C(F)(F)F)n(C)c3=O)c(F)cc2Cl)n1 [Compound No 8, 3-{4-chloro-2-fluoro-5-[(2-ethyl-2H-tetrazol-5-yl)methoxy]phenyl}-1-methyl-6-(trifluoromethyl)-2,4(1H,3H)-pyrimidinedione]
65 | COC(=O)Cn1nnc(COc2cc(-n3c(=O)cc(C(F)(F)F)n(C)c3=O)c(F)cc2Cl)n1 [Compound No 11, methyl [5-({2-chloro-4-fluoro-5-[1,2,3,6-tetrahydro-3-methyl-2,6-dioxo-4-(trifluoromethyl)pyrimidin-1-yl]phenoxy}methyl)-2H-tetrazol-2-yl]acetate]
142 | Cn1c(C(F)(F)F)cc(=O)n(-c2cc(OCc3cc(C(C)(C)C)no3)c(Cl)cc2F)c1=O [Compound No 132, 3-{5-[(3-tert-butylisoxazol-5-yl)methoxy]-4-chloro-2-fluorophenyl}-1-methyl-6-(trifluoromethyl)-2,4(1H,3H)-pyrimidinedione]
122 | Cn1c(C(F)(F)F)cc(=O)n(-c2cc(OCc3ncon3)c(Cl)cc2F)c1=O [Compound No 117, 3-[4-chloro-2-fluoro-5-(1,2,4-oxadiazol-3-ylmethoxy)phenyl]-1-methyl-6-(trifluoromethyl)-2,4(1H,3H)-pyrimidinedione]
116 | COC(=O)/C=C(\COc1cc(-n2c(=O)cc(C(F)(F)F)n(C)c2=O)c(Cl)cc1Cl)OC [Compound No 3, methyl (2E)-4-{2,4-dichloro-5-[1,2,3,6-tetrahydro-3-methyl-2,6-dioxo-4-(trifluoromethyl)pyrimidin-1-yl]phenoxy}-3-methoxybut-2-enoate]
185 | Cc1cc(COc2cc(-n3c(=O)cc(C(F)(F)F)n(C)c3=O)c(Cl)cc2Cl)on1 [Compound No 108, 3-{2,4-dichloro-5-[(3-methylisoxazol-5-yl)methoxy]phenyl}-1-methyl-6-(trifluoromethyl)-2,4(1H,3H)-pyrimidinedione]
78 | CCOC(=O)/C=C(\COc1cc(-n2c(=O)cc(C(F)(F)F)n(C)c2=O)c(F)cc1Cl)OC [Compound No 100, ethyl (2E)-4-{2-chloro-4-fluoro-5-[1,2,3,6-tetrahydro-3-methyl-2,6-dioxo-4-(trifluoromethyl)pyrimidin-1-yl]phenoxy}-3-methoxybut-2-enoate]
60 | CCn1nnnc1COc1cc(-n2c(=O)cc(C(F)(F)F)n(C)c2=O)c(F)cc1Cl [Compound No 9, 3-{4-chloro-2-fluoro-5-[(1-ethyl-1H-tetrazol-5-yl)methoxy]phenyl}-1-methyl-6-(trifluoromethyl)-2,4(1H,3H)-pyrimidinedione]
